Data as given in ChEMBL document CHEMBL1201862, “PubChem BioAssay data set” (2004).
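Growth conditions: 96-well plates. Treatment: test compound, 48 hours, 5 concentrations. Analysis: linear interpolation between bracketing concentrations; unreached endpoints set to highest concentration. GI50 marks 50% less growth.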 Active and inactive are the calls of the source. Rule as the data show it: active = GI50 up to about 1.1 µM and inactive = higher.

Assays:
Experiment in all cases: growth of human tumour cells (NCI), 48 h
786-0 = system: 786-0
SK-MEL-2 = system: SK-MEL-2
BT-549 = system: BT-549
DU-145 = system: DU-145
MDA-MB-435 = system: MDA-MB-435
PC-3 = system: PC-3
SNB-78 = system: SNB-78
RXF 631 = system: RXF 631
KM-20L2 = system: KM-20L2

Row | Compound | GI50 (786-0) | GI50 (SK-MEL-2) | GI50 (BT-549) | GI50 (DU-145) | GI50 (MDA-MB-435) | GI50 (PC-3) | GI50 (SNB-78) | GI50 (RXF 631) | GI50 (KM-20L2)
1 | CC(=O)Nc1ccc2c3c(cc(O)c2c1)N(C(=O)CCCCCC(=O)Nc1ccc2c4c(cc(O)c2c1)N(C(=O)OC(C)(C)C)CC4CCl)CC3CCl (stereo unspecified) | 2.04 µM (inactive) | 1.76 µM (inactive) | 1.87 µM (inactive) | 0.463 µM (active) | 1.63 µM (inactive) | 2.99 µM (inactive) |  |  | 
2 | COc1ccc(N2C(=O)C3c4[nH]c5c(C)cccc5c4C4CCC(C(C)(C)C)CC4C3C2=O)cc1 (stereo unspecified) |  | > 10 µM (inactive) |  | > 10 µM (inactive) | > 10 µM (inactive) | 3.61 µM (inactive) |  |  | 
3 | Cc1ccc(S(=O)(=O)NCCCSCCO)cc1 |  |  |  | > 100 µM (inactive) | 45.2 µM (inactive) | 30 µM (inactive) |  |  | 
4 | OC12c3ccccc3C1CCCCCCCCCC21OCCCO1 (stereo unspecified) |  |  |  |  |  |  | > 100 µM (inactive) |  | 
5 | CN(C)C(=S)/N=c1\ssc(=S)n1Cc1ccco1 | 3.72 µM (inactive) | 2.37 µM (inactive) | 12.2 µM (inactive) |  | 0.274 µM (active) | 0.509 µM (active) | 3.18 µM (inactive) | 4.69 µM (inactive) | 1.93 µM (inactive)
6 | O=[N+]([O-])c1ccccc1S(=O)(=O)c1ccccc1 |  | > 100 µM (inactive) |  |  |  |  |  | 18.5 µM (inactive) | > 100 µM (inactive)
7 | COc1ccccc1-c1cc(O)c2ccc(C)nc2n1 |  | > 100 µM (inactive) | > 100 µM (inactive) | > 100 µM (inactive) |  |  |  |  | 
8 | COc1cc(O)c2c(=O)c(O)c(-c3ccc(O)c(O)c3)oc2c1 [RHAMNETIN] |  |  |  | 4.13 µM (inactive) | 13 µM (inactive) | 19.7 µM (inactive) |  |  | 
